Calls of active or inactive are those of the source. The calls are words filed in the database; no cut-off is given here.
Tests used:
[1] = Cytotoxicity activity against HUVEC cells assessed as cell growth inhibition; format: toxicity, cell-based; settings: human
[2] = target: T1, von Hippel-Lindau disease tumor suppressor/Nicotinamide phosphoribosyltransferase (Homo sapiens) (UniProt P43490+P40337); assay: (§1) PROTAC activity at VHL/NAMPT in human A2780 cells assessed as protein degradation measured after 24 hrs by Western blot analysis; format: cell-based
T1 sequence (P40337 whole entry, looked up): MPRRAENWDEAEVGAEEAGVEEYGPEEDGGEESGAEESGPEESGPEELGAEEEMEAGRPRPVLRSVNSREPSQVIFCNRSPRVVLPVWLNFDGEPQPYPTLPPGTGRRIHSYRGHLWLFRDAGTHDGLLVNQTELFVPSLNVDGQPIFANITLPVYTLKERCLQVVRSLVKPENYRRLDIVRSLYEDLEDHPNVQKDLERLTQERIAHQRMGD
T1 sequence (P43490 whole entry, looked up): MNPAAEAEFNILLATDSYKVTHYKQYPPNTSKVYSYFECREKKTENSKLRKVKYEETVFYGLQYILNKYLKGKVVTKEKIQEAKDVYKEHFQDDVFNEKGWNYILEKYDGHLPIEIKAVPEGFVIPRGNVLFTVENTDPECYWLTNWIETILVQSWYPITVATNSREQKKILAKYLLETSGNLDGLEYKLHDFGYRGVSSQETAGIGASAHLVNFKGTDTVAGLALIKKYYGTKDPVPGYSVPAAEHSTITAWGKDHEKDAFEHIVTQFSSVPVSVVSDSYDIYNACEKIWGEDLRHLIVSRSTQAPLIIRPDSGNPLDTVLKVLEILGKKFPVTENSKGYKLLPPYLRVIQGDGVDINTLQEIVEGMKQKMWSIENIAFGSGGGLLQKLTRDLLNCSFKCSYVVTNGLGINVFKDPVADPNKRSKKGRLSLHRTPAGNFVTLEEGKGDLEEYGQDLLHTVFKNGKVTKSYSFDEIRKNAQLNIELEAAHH

[3] = target: von Hippel-Lindau disease tumor suppressor/Nicotinamide phosphoribosyltransferase (Homo sapiens, UniProt P40337+P43490); assay: as §1; format: cell-based
Sequence of von Hippel-Lindau disease tumor suppressor/Nicotinamide phosphoribosyltransferase (P43490 whole entry): as the sequence (P43490 whole entry, looked up) above
Sequence of von Hippel-Lindau disease tumor suppressor/Nicotinamide phosphoribosyltransferase (P40337 whole entry): as the sequence (P40337 whole entry, looked up) above

A2780 [4] = assay: Antiproliferative activity against human A2780 cells assessed as cell growth inhibition; format: functional, cell-based
[5] = target: Nicotinamide phosphoribosyltransferase (Homo sapiens, UniProt P43490); assay: Inhibition of NAMPT (unknown origin)
Sequence of Nicotinamide phosphoribosyltransferase (P43490 whole entry): as the sequence (P43490 whole entry, looked up) above

A2780 [6] = assay: Induction of apoptosis in human A2780 cells assessed as total apoptotic cells at 40 nM incubated for 48 hrs by flow cytometry analysis (reference value: 9.27 %); format: functional
A2780 [7] = assay: Induction of apoptosis in human A2780 cells assessed as total apoptotic cells at 1.6 nM incubated for 48 hrs by flow cytometry analysis (reference value: 9.27 %); format: functional
A2780 [8] = assay: Induction of apoptosis in human A2780 cells assessed as total apoptotic cells at 1000 nM incubated for 48 hrs by flow cytometry analysis (reference value: 9.27 %); format: functional
[9] = target: T1, von Hippel-Lindau disease tumor suppressor/Nicotinamide phosphoribosyltransferase (Homo sapiens); assay: PROTAC activity at VHL/NAMPT in human A2780 cells assessed as protein degradation at 200 nM preincubated with MG132 followed by compound addition and measured after 24 hrs by Western blot analysis; format: cell-based
[10] = target: T1, von Hippel-Lindau disease tumor suppressor/Nicotinamide phosphoribosyltransferase (Homo sapiens); assay: PROTAC activity at VHL/NAMPT in human A2780 cells assessed as protein degradation at 200 nM preincubated with VHL-Boc followed by compound addition and measured after 24 hrs by Western blot analysis; format: cell-based
[11] = target: T1, von Hippel-Lindau disease tumor suppressor/Nicotinamide phosphoribosyltransferase (Homo sapiens); assay: PROTAC activity at VHL/NAMPT in human A2780 cells assessed as protein degradation at 200 nM preincubated with MLN4924 followed by compound addition and measured after 24 hrs by Western blot analysis; format: cell-based
[12] = target: T1, von Hippel-Lindau disease tumor suppressor/Nicotinamide phosphoribosyltransferase (Homo sapiens); assay: PROTAC activity at VHL/NAMPT in human A2780 cells assessed as protein degradation at 200 nM preincubated with carfilzomib followed by compound addition and measured after 24 hrs by Western blot analysis; format: cell-based
[13] = target: T1, von Hippel-Lindau disease tumor suppressor/Nicotinamide phosphoribosyltransferase (Homo sapiens); assay: PROTAC activity at VHL/NAMPT in human A2780 cells assessed as protein degradation at 200 nM by Western blot analysis; format: cell-based; settings: TDE = time-dependent effect
[14] = target: T1, von Hippel-Lindau disease tumor suppressor/Nicotinamide phosphoribosyltransferase (Homo sapiens); assay: PROTAC activity at VHL/NAMPT in human A2780 cells assessed as protein degradation at 200 nM measured after 24 hrs by Western blot analysis relative to control; format: cell-based
[15] = target: T1, von Hippel-Lindau disease tumor suppressor/Nicotinamide phosphoribosyltransferase (Homo sapiens); assay: PROTAC activity at VHL/NAMPT in human A2780 cells assessed as protein degradation at 200 nM preincubated with VHL-Ac followed by compound addition and measured after 24 hrs by Western blot analysis; format: cell-based
[16] = target: T1, von Hippel-Lindau disease tumor suppressor/Nicotinamide phosphoribosyltransferase (Homo sapiens); assay: PROTAC activity at VHL/NAMPT in human A2780 cells assessed as protein degradation at 200 nM preincubated with NAMPT inhibitor, FK866 followed by compound addition and measured after 24 hrs by Western blot analysis; format: cell-based

Structure (SMILES)	Activity [2]	EC50 [3]	IC50 (A2780 [4])	IC50 [5]	IC50 [1]	further results
Cc1ncsc1-c1ccc([C@H](C)NC(=O)[C@@H]2C[C@@H](O)CN2C(=O)[C@@H](NC(=O)CCCNC(=O)c2ccc(C(=O)N3CCC(CCCCNC(=O)/C=C/c4cccnc4)CC3)cc2)C(C)(C)C)cc1	–	–	33.7 nM	1.53 nM	1.05 nM	–
Cc1ncsc1-c1ccc([C@H](C)NC(=O)[C@@H]2C[C@@H](O)CN2C(=O)[C@@H](NC(=O)CCCCCCCCNC(=O)c2ccc(C(=O)N3CCC(CCCCNC(=O)/C=C/c4cccnc4)CC3)cc2)C(C)(C)C)cc1	Dose-Dependent Effect	54.4 nM	37.9 nM	3.12 nM	0.9 nM	–
Cc1ncsc1-c1ccc([C@H](C)NC(=O)[C@@H]2C[C@@H](O)CN2C(=O)[C@@H](NC(=O)CCCCCCCCCNC(=O)c2ccc(C(=O)N3CCC(CCCCNC(=O)/C=C/c4cccnc4)CC3)cc2)C(C)(C)C)cc1	–	> 500 nM	69.2 nM	7.3 nM	1.51 nM	–
Cc1ncsc1-c1ccc([C@H](C)NC(=O)[C@@H]2C[C@@H](O)CN2C(=O)[C@@H](NC(=O)COCCOCCOCCOCCNC(=O)c2ccc(CN3CCN(S(=O)(=O)c4ccc(NC(=S)NCc5cccnc5)cc4)CC3)cc2)C(C)(C)C)cc1	–	–	< 4 nM	–	–	–
O=C(/C=C/c1cccnc1)NCCCCC1CCN(C(=O)c2ccccc2)CC1 [DAPORINAD]	–	–	< 3 nM	–	< 0.001 nM	Activity (A2780 [6]): 16.3%; Activity (A2780 [7]): 10.22%; Activity (A2780 [8]): 26.84%
Cc1ncsc1-c1ccc([C@H](C)NC(=O)[C@@H]2C[C@@H](O)CN2C(=O)[C@@H](NC(=O)CCCCCCCCCCNC(=O)c2ccc(C(=O)N3CCC(CCCCNC(=O)/C=C/c4cccnc4)CC3)cc2)C(C)(C)C)cc1	–	111 nM	41.1 nM	1.47 nM	2.23 nM	–

Continued, in another order:

Activity [2]	EC50 [3]	IC50 (A2780 [4])	IC50 [5]	Structure (SMILES)	IC50 [1]	further results
Dose-Dependent Effect	189 nM	3 nM	2.67 nM	Cc1ncsc1-c1ccc([C@H](C)NC(=O)[C@@H]2C[C@@H](O)CN2C(=O)[C@@H](NC(=O)CCCCNC(=O)c2ccc(C(=O)N3CCC(CCCCNC(=O)/C=C/c4cccnc4)CC3)cc2)C(C)(C)C)cc1	0.21 nM	–
Dose-Dependent Effect	56 nM	5.9 nM	1.59 nM	Cc1ncsc1-c1ccc([C@H](C)NC(=O)[C@@H]2C[C@@H](O)CN2C(=O)[C@@H](NC(=O)CCCCCCNC(=O)c2ccc(C(=O)N3CCC(CCCCNC(=O)/C=C/c4cccnc4)CC3)cc2)C(C)(C)C)cc1	0.07 nM	–
Dose-Dependent Effect	31.7 nM	30.6 nM	2.14 nM	Cc1ncsc1-c1ccc([C@H](C)NC(=O)[C@@H]2C[C@@H](O)CN2C(=O)[C@@H](NC(=O)CCCCCCCNC(=O)c2ccc(C(=O)N3CCC(CCCCNC(=O)/C=C/c4cccnc4)CC3)cc2)C(C)(C)C)cc1	0.3 nM	Activity [9]: inactive; Activity (A2780 [6]): 14.57%; Activity [10]: inactive; Activity (A2780 [7]): 10.15%; Activity (A2780 [8]): 20.81%; Activity [11]: inactive; Activity [12]: inactive; Activity [13]: Tde; Activity [14]: 78%; Activity [15]: inactive; Activity [16]: inactive
Dose-Dependent Effect	293 nM	2.4 nM	5.59 nM	Cc1ncsc1-c1ccc([C@H](C)NC(=O)[C@@H]2C[C@@H](O)CN2C(=O)[C@@H](NC(=O)CCCCCNC(=O)c2ccc(C(=O)N3CCC(CCCCNC(=O)/C=C/c4cccnc4)CC3)cc2)C(C)(C)C)cc1	0.45 nM	–

Reference: ChEMBL document CHEMBL5365405, “Discovery of potent NAMPT-Targeting PROTACs using FK866 as the warhead” (Bioorg Med Chem Lett, 2023)
